# Counter-ions that a name gives are not always drawn.
# Assay: in vitro
# Settings: rat, gh3-tre-luc cells
SMILES,CC50 at 24 h (AC50 (uM) modified / 1000) [µM],further results
C[C@]12CC[C@H]3[C@@H](CCC4=CC(=O)CC[C@@H]43)[C@@H]1CC[C@@H]2O [Nandrolone],> 90,
CN[C@H](CC(C)C)C(=O)N[C@H]1C(=O)N[C@@H](CC(N)=O)C(=O)N[C@H]2C(=O)N[C@H]3C(=O)N[C@H](C(=O)N[C@H](C(=O)O)c4cc(O)cc(O)c4-c4cc3ccc4O)[C@H](O)c3ccc(c(Cl)c3)Oc3cc2cc(c3O[C@@H]2O[C@H](CO)[C@@H](O)[C@H](O)[C@H]2O[C@H]2C[C@](C)(N)[C@H](O)[C@H](C)O2)Oc2ccc(cc2Cl)[C@H]1O [Vancomycin hydrochloride],> 50,
COc1ccc2c3c1O[C@H]1[C@@H](O)C=C[C@H]4[C@@H](C2)NCC[C@@]341 [Norcodeine],,"CC50 at 24 h (AC50 (uM) modified / 1000, Tox21_110001=Tox21_112027, viability, 1 nM T3 present, 24 h): > 50 µM"
Cc1cc(=O)c2c(O)c3c(O)cc(=O)c4c3c3c(cc(O)c1c23)C(C)(C)C=4O [Geliomycin],0.889,
COc1ccc(C(=O)c2ccccc2)c(O)c1 [2-Hydroxy-4-methoxybenzophenone],> 50,
CCCCCCCCCCCCOCCO [2-(Dodecyloxy)ethanol],> 90,
CCCCCCCC[P+](CCCCCCCC)(CCCCCCCC)CCCCCCCC [Tetraoctylphosphonium bromide],4.22,
CCc1ccc2c(c1)N(CC(C)CN(C)C)c1ccccc1S2 (stereo not shown) [Etymemazine hydrochloride],9.18,
CC(C)c1ccc(C#N)cc1 [4-Isopropylbenzonitrile],> 90,
Oc1cccc(Nc2ccccc2)c1 [3-Hydroxy-N-phenylaniline],> 100,
"Cc1cc(C)cc([N+](=O)[O-])c1 [1,3-Dimethyl-5-nitrobenzene]",> 90,
"CCC(C)(CCCC(C)C)OC(C)=O (stereo not shown) [3,7-Dimethyloctan-3-yl acetate]",> 90,
CN(C)CCN(Cc1ccc(Cl)cc1)c1ccccn1 [Chloropyramine hydrochloride],10.2,
CCN(CC)C(=O)C(C)Oc1cccc2ccccc12 (stereo not shown) [Napropamide],> 90,
CCO/N=C(\CC)C1=C(O)CC(c2c(C)cc(C)cc2C)CC1=O (stereo not shown) [Tralkoxydim],> 90,
Cc1ccc(N=Nc2c(O)c(C(=O)O)cc3ccccc23)c(S(=O)(=O)O)c1 [D&C Red No. 7],27.6,
CC(O)CCCCn1c(=O)c2c(ncn2C)n(C)c1=O (racemic) [(+/-)-Lisofylline],> 50,
CCOC(=O)CC(=O)CCl [Ethyl 4-chloro-3-oxobutanoate],,"CC50 at 24 h (AC50 (uM) modified / 1000, Tox21_110001=Tox21_302063, viability, 1 nM T3 present, 24 h): 76.9 µM"

SMILES,CC50 at 24 h (AC50 (uM) modified / 1000) [µM],further results
O=P(c1ccccc1)(c1ccccc1)c1ccccc1 [Triphenylphosphine oxide],> 90,
O=[N+]([O-])c1ccccc1Nc1ccccc1 [2-Nitrodiphenylamine],> 90,
CCO[Si](CCCCl)(OCC)OCC [(3-Chloropropyl)(triethoxy)silane],> 90,
C#C[C@]1(OC(C)=O)CC[C@H]2[C@@H]3CCC4=CC(=NO)CC[C@@H]4[C@H]3CC[C@@]21CC (mixture of isomers) [Norgestimate],30.6,
Brc1cc(Oc2cc(Br)c(Br)c(Br)c2Br)c(Br)c(Br)c1Br [Octabromodiphenyl ether],> 90,
"N#CC(Br)(Br)C(N)=O [2,2-Dibromo-3-nitrilopropionamide]",> 90,
"CCCCNC(=O)NCCCC [N,N'-Dibutylurea]",> 90,
Cc1nnc2n1-c1sc(CCc3ccc(CC(C)C)cc3)cc1C(c1ccccc1Cl)=NC2C (stereo not shown) [Israpafant],13.6,
C/C=C/C(=O)Oc1ccccc1[N+](=O)[O-] [Dinocap],14.3,
CCN(CC)CCNC(=O)c1ccc(NS(C)(=O)=O)cc1 [Sematilide monohydrochloride],> 50,
C=CC(=O)Nc1cc2c(Nc3ccc(F)c(Cl)c3)ncnc2cc1OCCCN1CCOCC1 [Canertinib],4.7,
COc1ccc(NC(C)=O)cc1 [N-(4-Methoxyphenyl)acetamide],> 90,
C=CC(=O)CCCCC [1-Octen-3-one],> 100,
c1ccc(N=NNc2ccccc2)cc1 [Diazoaminobenzene],,"CC50 at 24 h (AC50 (uM) modified / 1000, Tox21_110001=Tox21_202253, viability, 1 nM T3 present, 24 h): 69 µM; CC50 at 24 h (AC50 (uM) modified / 1000, Tox21_110001=Tox21_303249, viability, 1 nM T3 present, 24 h): 47.9 µM"
COc1cc2c(N3CCN(C(=O)Nc4ccc(OC(C)C)cc4)CC3)ncnc2cc1OCCCN1CCCCC1 [Tandutinib],11.4,
CC1=C(C(=O)OCCN(Cc2ccccc2)c2ccccc2)C(c2cccc([N+](=O)[O-])c2)C(P2(=O)OCC(C)(C)CO2)=C(C)N1 (stereo not shown) [Efonidipine],23.8,
CN(N=O)c1ccc([N+](=O)[O-])cc1 [N-Nitroso-N-methyl-4-nitroaniline],> 90,
O=[N+]([O-])c1ccc(O/N=C/c2cc(Br)c(O)c(Br)c2)c([N+](=O)[O-])c1 [Bromofenoxim],26,
